Where two headings read alike, the source gives them in different places.
Key:
[1] = tested on: T. cruzi; test: Capture ELISA of Vero cultures infected 17h with or without inhibitor; format: cell-based, Trypanosoma cruzi; details: 17h at 37°C, 10:1 parasite/cell ratio; 0-30 mM OxoPA, Br-OxoPA or 10-1000 µM PYC in DMSO; Fig. 9
Description: Flat-bottomed microtiter plates (Nunc, Denmark) were coated overnight at 4°C with rabbit anti-T. cruzi polyclonal antibodies and further blocked for 4 h at room temperature (RT) with 1% BSA, 0.05% Tween 20 in PBS. After washings, lysate samples from infected or control Vero cultures, or from T. cruzi, were then added and incubated at 4°C for 18h. Plates were washed with PBS-Tween and incubated for 2h at RT with polyclonal mouse anti-T. cruzi chronic serum, washed again and incubated for 1 h at RT with HRP-secondary antibodies. […] Optical densities were determined in a spectrophotometer at 450 nm and 650 nm and analyzed using Softmax Pro software.
To confirm the effect of the inhibitors in the initial steps of the host-parasite interaction, cultures were infected for 17h at 37°C at a 10:1 parasite/cell ratio with or without increasing doses of freshly prepared dilutions (0-30 mM) of OxoPA, Br-OxoPA (15), or (10-1000 µM) of PYC, previously dissolved in DMSO and further analyzed by capture ELISA (see methods and Fig. 9). […] Three ongoing studies were performed to determine whether TcPRAC inhibition by the new compounds affects parasite intracellular fate. To do this, host cells were infected for 17 hours then washed and different ligand concentrations (5 mM, 10 mM, 30, 100 mM) were added to the medium. The degree of infection was determined over 48 hours by capture ELISA. The number of parasites per well decreased in a dose-dependent manner (Fig. 7). These experiments indicate that TcPRAC inhibition by OxoPA and Br-OxoPA affects both cellular infection by T. cruzi and parasite development in tissues.

[2] = molecular target: T1, TcPRAC (Trypanosoma cruzi, UniProt Q4DA80); test: L-proline racemization assay by polarimetry; format: biochemical; details: ligand 10.0 µM; L-Proline 20 mM, 30 minutes 37°C, 0.25 µM TcPRAC
T1 construct: implied only by nickel IMAC purification; made in house; host or cells: E. coli BL21 (DE3)
T1 sequence (Q4DA80 32-423): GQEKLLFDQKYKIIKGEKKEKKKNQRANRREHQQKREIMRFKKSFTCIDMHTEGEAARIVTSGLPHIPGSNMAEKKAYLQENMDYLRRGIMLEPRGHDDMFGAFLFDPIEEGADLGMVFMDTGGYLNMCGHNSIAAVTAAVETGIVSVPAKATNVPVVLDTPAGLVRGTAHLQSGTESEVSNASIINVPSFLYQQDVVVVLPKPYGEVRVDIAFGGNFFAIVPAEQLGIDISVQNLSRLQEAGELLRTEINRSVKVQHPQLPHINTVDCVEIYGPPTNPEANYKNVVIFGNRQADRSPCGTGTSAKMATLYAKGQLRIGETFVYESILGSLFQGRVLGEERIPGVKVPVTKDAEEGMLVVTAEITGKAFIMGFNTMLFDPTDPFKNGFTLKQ
Description: (§1) Briefly, classical assays of Proline racemization induced by TcPRAC were performed in tubes in a final volume of 1.5 ml and optical rotations measured in a polarimeter 241MC (Perkin Elmer). Parallel assays of Proline racemization were transposed into microplates in a final volume of 100 µl, as follows: serial dilutions of L- Proline ranging from 40 mM to 2.5 mM were prepared in 0.2 M sodium acetate pH 6.0 containing 0.25 mM rTcPRAC and loaded into microplate wells in the presence or in the absence of 0 - 20 µM pyrrole-2 carboxylic acid (PYC) or of similar dilutions of unknown potential inhibitors. Specific control wells were included omitting the TcPRAC and/or the PYC.
The values presented in Table 2B correspond to racemization reactions performed in the absence or in the presence of the different inhibitors. Note that 6 µM PYC is necessary to inhibit 100 % of the racemization of 10-20 mM L-proline. Briefly, L-Proline (20 mM) were incubated for 30 minutes at 37°C in test tubes with or without 0.25 µM TcPRAC in 0.2 M sodium acetate pH 6. Reactions were stopped by heating at 65° C for 10 minutes. Reaction volumes were analyzed for D-Proline formation, by measuring optical rotations in a polarimeter (365nm).

[3] = molecular target: T1, TcPRAC; test: L-proline racemization assay, formed D-proline determined by DAAOx test; format: biochemical
Description: as §1
Microplates were incubated for 30 minutes at 37° C. Enzyme activity was then inactivated by heating the plate for 15 seconds in a microwave oven at 900 watts after shifting the pH of wells to 8.3 by addition of 6.8 µl of 0.235 M sodium Pyrophosphate. 50 µl of each well were used to test the presence of D-Proline using the DAAOx (D-amino acid oxidase) test described below. L- amino acids may react at very low rate with DAAOx. For instance, DAAOx reacts with L-Proline 300 times slower than D-Proline. Consequently, when assessing amino acid racemization products, standards should consist of serial dilution of equimolar mixtures of specific D- and L-amino acids ranging from 0 to 20 mM (10 mM final) to take into account any interference of possible reactivity with DAAOx of the L- form of amino acids present in the samples.
Solution A consisting of 0.2 M sodium acetate/0.016 M sodium pyrophosphate (Pop) buffer, pH 8.3 was used to prepare the enzyme stock solutions conserved in 50% glycerol, namely: 50 U/ml D-amino acid oxidase from pig kidney (DAAOx, Sigma) and 5000 U/ml Horse Raddish Peroxydase (HRP, Sigma). Stock solutions of L- proline (1M), D- proline (1M) and Pyrrole-2-carboxylic acid (10 mM) (PYC, Sigma) are also prepared in solution A. 10^-1 M FAD (Sigma) stock was prepared in water. Solution B consists in adding to solution A the following reagents at a final concentration in the assay of 1 U/ml for DAAOx, 0.5 mg/ml orthophenylenediamine (OPD, Sigma), 37.5 U/ml HRP and FAD (1.5x10^-5 M FAD). The test is run in 96 wells micro plates (Nunc, Denmark). […] OD 490nm - 650nm is obtained with a microtiter plate reader (Molecular Devices), and compared to those obtained with blank control wells.
The values presented in Table 2A correspond to racemization reactions performed in the absence or in the presence of 10 µM concentration of the different ligands. […] Briefly, 22.4 mg/ml of active TcPRAC was used in the racemization assays of 10 mM L-proline substrate and the concentration of formed D-proline was determined by the DAAOx test, as described in the Material and Methods. […]

[4] = molecular target: CsPRAC; details: value given for comparison; cited from earlier work
[5] = molecular target: T1, TcPRAC; details: cited from earlier work
[6] = tested on: T.cruzi CL Brener (clone F11-F5); details: cited from earlier work; for Mean number of parasites/ cell / % Infected cells / Endocytic index: from previous work; for Endocytic index (EI): Table 5, same PYC data as Table 3A
[7] = molecular target: recombinant TvPRAC; details: 5 µM PYC, 20-160 mM L-proline; Chamond et al 2009; cited from earlier work
[8] = molecular target: T1, TcPRAC; format: biochemical; details: in words; for inhibition of TcPRAC activity: Table 1
Description: Optimum Proline racemization conditions for TcPRAC were determined using 10-20 mM L-Proline in 0.2 M NaOAc, as a function of pH, as described [24].
Briefly, classical assays of Proline racemization induced by TcPRAC were performed in tubes in a final volume of 1.5 ml and optical rotations measured in a polarimeter 241MC (Perkin Elmer). […] Specific control wells were included omitting the TcPRAC and/or the PYC.
Microplates were incubated for 30 minutes at 37° C. Enzyme activity was then inactivated by heating the plate for 15 seconds in a microwave oven at 900 watts after shifting the pH of wells to 8.3 by addition of 6.8 µl of 0.235 M sodium Pyrophosphate. 50 µl of each well were used to test the presence of D-Proline using the DAAOx (D-amino acid oxidase) test described below [25]. L- amino acids may react at very low rate with DAAOx. For instance, DAAOx reacts with L-Proline 300 times slower than D-Proline. Consequently, when assessing amino acid racemization products, standards should consist of serial dilution of equimolar mixtures of specific D- and L-amino acids ranging from 0 to 20 mM (10 mM final) to take into account any interference of possible reactivity with DAAOx of the L- form of amino acids present in the samples.
Solution A consisting of 0.2 M sodium acetate/0.016 M sodium pyrophosphate (Pop) buffer, pH 8.3 was used to prepare the enzyme stock solutions conserved in 50% glycerol, namely: 50 U/ml D-amino acid oxidase from pig kidney (DAAOx, Sigma) and 5000 U/ml Horse Raddish Peroxydase (HRP, Sigma). Stock solutions of L- proline (1M), D- proline (1M) and Pyrrole-2-carboxylic acid (10 mM) (PYC, Sigma) are also prepared in solution A. 10^-1 M FAD (Sigma) stock was prepared in water. Solution B consists in adding to solution A the following reagents at a final concentration in the assay of 1 U/ml for DAAOx, 0.5 mg/ml orthophenylenediamine (OPD, Sigma), 37.5 U/ml HRP and FAD (1.5x10^-5 M FAD). […] OD 490nm - 650nm is obtained with a microtiter plate reader (Molecular Devices), and compared to those obtained with blank control wells. […]

SMILES: O=C(O)c1ccc[nH]1 [PYC, pyrrole-2-carboxylic acid]
- inhibition of cellular infection [1]: no particular differences were observed
- Racemization Inhibition [2]: 56.9%
- IC50 [3]: ~10 µM
- Formed D-Proline ([3]; ligand 10 µM, 10 mM L-proline, 22.4 mg/ml TcPRAC, 5.0mM without ligand): 2.4 mM (IC50)
- Ki [4]: 18 µM
- PYC necessary to inhibit 100 % of the racemization of 10-20 mM L-proline ([5]; reference [15]): 6 µM
- affinity for the TcPRAC catalytic pocket ([5]; reference [15]): 6 µM
- Ki ([5]; value given for comparison): 6.7 µM
- Mean number of parasites/ cell ([6]; 10 µM, 2 at 0): 1,7
- % Infected cells ([6]; 10 µM, 90,0 at 0): 75,0%
- Endocytic index ([6]; 10 µM): 44
- % Infected cells ([6]; 100 µM): 45,0%
- Endocytic index ([6]; 100 µM): 30
- Mean number of parasites/ cell ([6]; 100 µM): 1,5
- % Infected cells ([6]; 1000 µM): 25,0%
- Endocytic index ([6]; 1000 µM): 25
- Mean number of parasites/ cell ([6]; 1000 µM): 1,0
- Endocytic index (EI) ([6]; Inhibitor concentration 10): 44
- Endocytic index (EI) ([6]; Inhibitor concentration 100): 30
- Endocytic index (EI) ([6]; Inhibitor concentration 1000): 25
- Ki [7]: 20 µM

SMILES: O=C(O)c1n[nH]cc1Br [Pyrazole 4-bromo 5-carboxylic, 4-bromo-1H-pyrazole-3-carboxylic acid]
- inhibition of TcPRAC activity [8]: weak inhibitions

SMILES: O=C(O)c1n[nH]cc1Cl [Pyrazole 4-chloro 5-carboxylic, 4-chloro-1H-pyrazole-3-carboxylic acid]
- inhibition of TcPRAC activity [8]: weak inhibitions

SMILES: O=C(O)c1cc[nH]n1 [Pyrazole 5-carboxylic, 1H-pyrazole-3-carboxylic acid]
- activity with PRAC (Figure 1 compounds) [8]: very weakly active
